Structures can show the parent of a compound that is named as a salt.
Molecular target: T1, human α-thrombin (Homo sapiens, UniProt P00734)
T1 construct: Purified human α-thrombin; purchased Enzyme Research Laboratories (South Bend, Ind.)
Assay: In vitro inhibition of purified thrombin (p-nitroanilide substrate hydrolysis, Ki determination)
Type: biochemical
Details: purified human α-thrombin 0.5 nM; substrate N-succinyl-Ala-Ala-Pro-Arg-p-nitroanilide 32 μM; 37° C.; pH 7.5
From the text: Reagents: All buffer salts were obtained from Sigma Chemical Company (St. Louis, Mo.), and were of the highest purity available. The enzyme substrates, N—N-benzoyl-Phe-Val-Arg-p-nitroanilide (Sigma B7632), N-benzoyl-Ile-Glu-Gly-Arg-p-nitroanilide hydrochloride (Sigma B2291), N-p-Tosyl-Gly-Pro-Lys-p-nitroanilide (Sigma T6140), N-succinyl-Ala-Ala-Pro-Phe-p-nitroanilide (Sigma S7388) and N-CBZ-Val-Gly-Arg-p-nitroanilide (Sigma C7271) were obtained from Sigma. N-succinyl-Ala-Ala-Pro-Arg-p-nitroanilide (BACHEM L-1720) and N-succinyl-Ala-Ala-Pro-Val-p-nitroanilide (BACHEM L-1770) were obtained from BACHEM (King of Prussia, Pa.).
Human α-thrombin, human factor Xa and human plasmin were obtained from Enzyme Research Laboratories (South Bend, Ind.). Bovine α-chymotrypsin (Sigma C4129), bovine trypsin (Sigma T8642) and human kidney cell urokinase (Sigma U5004) were obtained from Sigma. Human leukocyte elastase was obtained from Elastin Products (Pacific, Mo.).
Ki Determinations: All assays are based on the ability of the test compound to inhibit the enzyme catalyzed hydrolysis of a peptide p-nitroanilide substrate. […] In general, substrate concentrations are lower than the experimentally determined value for Km. […]
In a typical Ki determination, into each well of a 96 well plate is pipetted 280 μL of substrate solution, 10 μL of test compound solution, and the plate allowed to thermally equilibrate at 37° C. in a Molecular Devices plate reader for >15 minutes. Reactions were initiated by the addition of a 10 μL aliquot of enzyme and the absorbance increase at 405 nm is recorded for 15 minutes. […] The ratio of the velocity (rate of change in absorbance as a function of time) for a sample containing no test compound is divided by the velocity of a sample containing test compound, and is plotted as a function of test compound concentration. The data are fit to a linear regression, and the value of the slope of the line calculated. The inverse of the slope is the experimentally determined Ki value. […]

SMILES | Ki
Cc1cc(OCC2CCN(C(=N)N)OC2)cc(OS(=O)(=O)c2ccccc2S(C)(=O)=O)c1 (stereo not drawn) [Example 1, 3-[(2-Amidino(1,2-oxazaperhydroin-5-yl))methoxy]-5-methylphenyl 2-(methylsulfonyl)benzenesulfonate Trifluoroacetate] | 7 nM
CS(=O)(=O)c1ccccc1S(=O)(=O)Oc1cc(Cl)cc(OCC2CCN(C(=N)N)OC2)c1 (stereo not drawn) [Example 2, 3-[(2-Amidino(1,2-oxazaperhydroin-5-yl))methoxy]-5-chlorophenyl 2-(methylsulfonyl)benzenesulfonate trifluoroacetate] | 13 nM
C=CCN(C(=O)c1cc(Cl)cc(OCC2CCN(C(=N)N)OC2)c1)C1CCCC1 (stereo not drawn) [Example 3, 5-{[5-Chloro-3-(N-cyclopentyl-N-prop-2-enylcarbamoyl)phenoxy]methyl}-1,2-oxazaperhydroine-2-carboxamidine trifluoroacetate] | 8 nM
